The values below come from patent US10745487B2, “Method of treating cancer by administering an anti-LGR5 monoclonal antibody” (Bionomics Limited, priority 2016, dated 2020).

For test [1], the system named is LGR5 expression in CRC cell lines. Put plainly: LGR5 expression by flow cytometry in treated CRC cell lines. The test is classed as cell-based, human. The note with it: panel DLD1, HCT116, LS174t, LoVo, SW48, SW480, SW620; 1 um, 72 hrs. Here is the method: A panel of CRC cell lines including DLD1, HCT116, LS174t, LoVo, SW48, SW480 and SW620 were treated with a PI3K/mTOR dual inhibitor (NVP) or 2 different cytotoxic agents including SN38 (active metabolite of Irinotecan) or 5FU (5 fluorouracil). Cells were treated with the above agents at 1 um and were harvested after 72 hrs. Cells were then stained with anti-LGR5 Mab conjugated to Alexa Fluor647 and the data were analyzed by flow cytometry using a FACScalibur.
A general note: Flow cytometry measures light scatter and fluorescence of single cells or particles in a stream.

Test [2] deals with LGR5 expression in pancreatic cell lines. The experiment in a line: LGR5 expression by flow cytometry in treated pancreatic cell lines. It counts as cell-based, human. The note with it: panel AsPc1, HPAFII, PANC1, BxPC3, CFPAC, PANC10.05, Capan2, SW1990. Here is the method: The pancreatic cell lines that were tested include: AsPc1, HPAFII, PANC1, BxPC3, CFPAC, PANC10.05, Capan2 and SW1990.

In test [3] the test system is LGR5 expression in JH109, ASPC1 and PANC1 tumors. Put plainly: QPCR of LGR5 expression in treated pancreatic tumors. It counts as in vivo, mice. The note with it: standard of care: Gemzar and Abraxane in JH109, Gemzar alone in PANC1 and ASPC1. Here is the method:
LGR5 expression in metastatic pancreatic patient derived xenografts was investigated using the quantitative polymerase chain reaction (QPCR). A sample of tumor tissue was flash frozen or added to a cryovial containing RNAlater (Qiagen, CA), and transferred to −70° C. after incubation at 4° C. for several hours. Total RNA was extracted using a Qiagen RNeasy extraction kit (Qiagen, CA), and cDNA was synthesized using a SuperScriptIII kit (Life Technologies, CA) and protocols provided by the manufacturer. Human LGR5 transcript abundance was measured using human specific LGR5 and GAPDH primers and the following thermal condition in the StepOne Thermocycler (Life Technologies, CA): 50° C. (2 min); 90° C. (2 min) and 40 cycles of 90° C. (15 sec) and 60° C. (1 min) and melt curve assessment (from 65° C.-95° C.). LGR5 abundance was quantified using 2^δCt equation.
LGR5 expression was investigated in a series of pancreatic tumors including JH109, ASPC1 and PANC1.

Regarding `O=c1[nH]cc(F)c(=O)[nH]1` [5FU, 5 fluorouracil], in test [1], the “LGR5 expression (flow cytometry)” value is recorded as “did not induce LGR5 expression in any of these lines”.
On the same count and under the same terms, in the case of `CCc1c2c(nc3ccc(O)cc13)-c1cc3c(c(=O)n1C2)COC(=O)[C@]3(O)CC` [SN38] it was “promoted LGR5 expression in HCT116, LS174t, SW48, SW480 and especially SW620 cells”.
`Nc1ccn([C@@H]2O[C@H](CO)[C@@H](O)C2(F)F)c(=O)n1` [gemcitabine, reference compound]: the “LGR5 expression (flow cytometry)” value in test [2] is on record as “upregulates LGR5 in PANC1”. The “LGR5 expression in tumors (QPCR)” value in test [3] was “induction in LGR5 expression”.
Take `CC(=O)O[C@H]1C(=O)[C@@]2(C)[C@H]([C@H](OC(=O)c3ccccc3)[C@]3(O)C[C@H](OC(=O)[C@H](O)[C@@H](NC(=O)c4ccccc4)c4ccccc4)C(C)=C1C3(C)C)[C@]1(OC(C)=O)CO[C@@H]1C[C@@H]2O` [taxol]: the “LGR5 expression (flow cytometry)” value in test [2] is “increased LGR5 expression in HPAFII”.
